Laboratory results as given in ChEMBL document CHEMBL5653631, “A Potent and Selective ULK1 Inhibitor Suppresses Autophagy and Sensitizes Cancer Cells to Nutrient Stress” (iScience, 2018).
Blank lines part the entries; values can stand above or below the molecule they belong to.

Legend:
[1] = target: Serine/threonine-protein kinase PLK1 (Homo sapiens) (UniProt P53350); assay: Inhibition of human recombinant PLK1 at 500 nM in presence of ATP by radiometric assay relative to control
[2] = target: Receptor-type tyrosine-protein kinase FLT3 (Homo sapiens) (UniProt P36888); assay: Inhibition of human recombinant FLT3 at 500 nM in presence of ATP by radiometric assay relative to control
Receptor-type tyrosine-protein kinase FLT3 (Homo sapiens), sequence (P36888 whole entry): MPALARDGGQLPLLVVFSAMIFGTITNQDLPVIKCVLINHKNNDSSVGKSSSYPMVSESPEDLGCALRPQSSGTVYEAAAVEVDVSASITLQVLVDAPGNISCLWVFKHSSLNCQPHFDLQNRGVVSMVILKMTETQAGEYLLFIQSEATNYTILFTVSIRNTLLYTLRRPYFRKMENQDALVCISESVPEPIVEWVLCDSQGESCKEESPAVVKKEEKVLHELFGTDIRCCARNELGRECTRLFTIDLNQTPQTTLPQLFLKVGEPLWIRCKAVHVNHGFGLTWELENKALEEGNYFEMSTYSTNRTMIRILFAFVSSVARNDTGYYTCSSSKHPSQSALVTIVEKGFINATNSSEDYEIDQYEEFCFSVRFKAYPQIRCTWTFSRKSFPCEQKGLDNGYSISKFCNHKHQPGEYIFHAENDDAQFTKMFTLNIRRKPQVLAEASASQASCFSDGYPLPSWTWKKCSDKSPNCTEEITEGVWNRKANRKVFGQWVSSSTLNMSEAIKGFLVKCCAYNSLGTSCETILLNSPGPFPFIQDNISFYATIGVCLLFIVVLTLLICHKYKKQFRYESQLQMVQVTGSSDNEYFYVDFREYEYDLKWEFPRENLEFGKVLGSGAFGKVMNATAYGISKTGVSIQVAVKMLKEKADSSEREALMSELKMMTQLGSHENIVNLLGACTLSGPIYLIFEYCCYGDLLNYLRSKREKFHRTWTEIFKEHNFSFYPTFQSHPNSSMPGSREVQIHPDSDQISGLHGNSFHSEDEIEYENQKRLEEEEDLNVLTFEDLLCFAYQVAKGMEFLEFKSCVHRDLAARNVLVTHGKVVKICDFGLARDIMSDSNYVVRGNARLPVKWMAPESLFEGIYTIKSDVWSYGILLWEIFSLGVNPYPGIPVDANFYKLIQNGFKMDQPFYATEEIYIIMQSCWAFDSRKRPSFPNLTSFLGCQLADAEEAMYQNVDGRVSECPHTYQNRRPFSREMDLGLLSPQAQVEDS

[3] = target: Tau-tubulin kinase 2 (Homo sapiens) (UniProt Q6IQ55); assay: Inhibition of human recombinant TTBK2 at 500 nM in presence of ATP by radiometric assay relative to control
Tau-tubulin kinase 2 (Homo sapiens), sequence (Q6IQ55 whole entry, canonical isoform): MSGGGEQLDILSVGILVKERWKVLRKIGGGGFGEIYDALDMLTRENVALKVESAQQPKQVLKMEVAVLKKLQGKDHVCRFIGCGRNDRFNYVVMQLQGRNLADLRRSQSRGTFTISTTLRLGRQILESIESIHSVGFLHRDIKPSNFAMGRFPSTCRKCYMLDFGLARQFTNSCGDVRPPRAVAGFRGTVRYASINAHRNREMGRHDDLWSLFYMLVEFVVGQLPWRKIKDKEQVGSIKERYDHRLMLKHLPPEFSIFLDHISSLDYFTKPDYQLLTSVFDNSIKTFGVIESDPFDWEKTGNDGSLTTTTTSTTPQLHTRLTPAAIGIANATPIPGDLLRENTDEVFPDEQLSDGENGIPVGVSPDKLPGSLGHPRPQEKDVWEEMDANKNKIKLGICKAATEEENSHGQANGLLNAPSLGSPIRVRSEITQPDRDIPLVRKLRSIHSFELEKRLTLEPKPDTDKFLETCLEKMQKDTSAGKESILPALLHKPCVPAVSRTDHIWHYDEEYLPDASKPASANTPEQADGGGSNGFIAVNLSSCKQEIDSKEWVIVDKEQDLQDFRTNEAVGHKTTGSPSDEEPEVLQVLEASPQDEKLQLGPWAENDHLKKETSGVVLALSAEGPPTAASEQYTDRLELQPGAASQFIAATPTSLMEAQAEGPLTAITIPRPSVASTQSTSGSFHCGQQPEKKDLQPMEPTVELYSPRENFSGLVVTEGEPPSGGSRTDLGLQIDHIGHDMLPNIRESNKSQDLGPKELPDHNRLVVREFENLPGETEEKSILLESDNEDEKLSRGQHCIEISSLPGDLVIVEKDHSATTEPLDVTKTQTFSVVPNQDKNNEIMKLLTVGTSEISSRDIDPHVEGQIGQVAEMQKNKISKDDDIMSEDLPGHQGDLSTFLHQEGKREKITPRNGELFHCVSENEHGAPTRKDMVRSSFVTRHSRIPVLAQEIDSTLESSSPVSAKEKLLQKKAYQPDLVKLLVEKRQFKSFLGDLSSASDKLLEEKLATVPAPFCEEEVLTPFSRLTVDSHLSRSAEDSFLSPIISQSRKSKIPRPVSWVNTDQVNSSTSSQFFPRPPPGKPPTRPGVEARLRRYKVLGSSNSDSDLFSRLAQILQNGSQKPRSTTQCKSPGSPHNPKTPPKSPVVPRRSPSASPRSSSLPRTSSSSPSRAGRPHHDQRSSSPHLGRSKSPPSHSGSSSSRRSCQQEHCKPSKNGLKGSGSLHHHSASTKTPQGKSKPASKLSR

[4] = target: T1, Tyrosine-protein kinase Mer (Homo sapiens) (UniProt Q12866); assay: Inhibition of human recombinant MER at 500 nM related to control ULK1
T1 sequence (whole entry): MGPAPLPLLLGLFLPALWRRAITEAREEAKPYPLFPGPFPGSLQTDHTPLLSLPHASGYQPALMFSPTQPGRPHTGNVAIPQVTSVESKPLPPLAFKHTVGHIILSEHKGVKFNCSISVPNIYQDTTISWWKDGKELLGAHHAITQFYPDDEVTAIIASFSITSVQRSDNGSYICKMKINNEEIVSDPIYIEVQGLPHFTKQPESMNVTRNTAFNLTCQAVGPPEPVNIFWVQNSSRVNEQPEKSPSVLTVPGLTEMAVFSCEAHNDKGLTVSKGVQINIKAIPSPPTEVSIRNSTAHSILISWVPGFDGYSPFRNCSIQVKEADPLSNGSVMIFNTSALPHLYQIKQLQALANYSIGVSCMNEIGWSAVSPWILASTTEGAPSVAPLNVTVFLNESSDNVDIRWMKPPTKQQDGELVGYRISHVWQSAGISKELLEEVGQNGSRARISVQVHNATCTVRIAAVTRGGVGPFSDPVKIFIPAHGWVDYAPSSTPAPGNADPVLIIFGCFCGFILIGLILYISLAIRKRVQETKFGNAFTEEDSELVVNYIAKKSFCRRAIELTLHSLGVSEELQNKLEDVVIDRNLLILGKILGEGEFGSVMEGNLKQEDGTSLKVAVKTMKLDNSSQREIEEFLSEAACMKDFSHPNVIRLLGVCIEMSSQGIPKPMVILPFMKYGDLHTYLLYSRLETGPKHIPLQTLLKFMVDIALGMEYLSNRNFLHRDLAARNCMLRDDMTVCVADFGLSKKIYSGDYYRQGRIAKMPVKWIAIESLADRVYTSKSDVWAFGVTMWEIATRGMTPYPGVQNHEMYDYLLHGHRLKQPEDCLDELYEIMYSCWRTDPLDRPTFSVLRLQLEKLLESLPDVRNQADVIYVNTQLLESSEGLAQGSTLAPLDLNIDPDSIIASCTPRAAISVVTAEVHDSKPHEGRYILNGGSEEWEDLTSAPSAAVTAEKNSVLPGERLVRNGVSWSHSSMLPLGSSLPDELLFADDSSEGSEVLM

[5] = target: Ephrin type-A receptor 4 (Homo sapiens) (UniProt P54764); assay: Inhibition of human recombinant EphA4 at 40 nM in presence of ATP by radiometric assay relative to control
[6] = target: Proto-oncogene tyrosine-protein kinase ROS (Homo sapiens) (UniProt P08922); assay: Inhibition of human recombinant ROS at 40 nM in presence of ATP by radiometric assay relative to control
Proto-oncogene tyrosine-protein kinase ROS (Homo sapiens), sequence (P08922 whole entry): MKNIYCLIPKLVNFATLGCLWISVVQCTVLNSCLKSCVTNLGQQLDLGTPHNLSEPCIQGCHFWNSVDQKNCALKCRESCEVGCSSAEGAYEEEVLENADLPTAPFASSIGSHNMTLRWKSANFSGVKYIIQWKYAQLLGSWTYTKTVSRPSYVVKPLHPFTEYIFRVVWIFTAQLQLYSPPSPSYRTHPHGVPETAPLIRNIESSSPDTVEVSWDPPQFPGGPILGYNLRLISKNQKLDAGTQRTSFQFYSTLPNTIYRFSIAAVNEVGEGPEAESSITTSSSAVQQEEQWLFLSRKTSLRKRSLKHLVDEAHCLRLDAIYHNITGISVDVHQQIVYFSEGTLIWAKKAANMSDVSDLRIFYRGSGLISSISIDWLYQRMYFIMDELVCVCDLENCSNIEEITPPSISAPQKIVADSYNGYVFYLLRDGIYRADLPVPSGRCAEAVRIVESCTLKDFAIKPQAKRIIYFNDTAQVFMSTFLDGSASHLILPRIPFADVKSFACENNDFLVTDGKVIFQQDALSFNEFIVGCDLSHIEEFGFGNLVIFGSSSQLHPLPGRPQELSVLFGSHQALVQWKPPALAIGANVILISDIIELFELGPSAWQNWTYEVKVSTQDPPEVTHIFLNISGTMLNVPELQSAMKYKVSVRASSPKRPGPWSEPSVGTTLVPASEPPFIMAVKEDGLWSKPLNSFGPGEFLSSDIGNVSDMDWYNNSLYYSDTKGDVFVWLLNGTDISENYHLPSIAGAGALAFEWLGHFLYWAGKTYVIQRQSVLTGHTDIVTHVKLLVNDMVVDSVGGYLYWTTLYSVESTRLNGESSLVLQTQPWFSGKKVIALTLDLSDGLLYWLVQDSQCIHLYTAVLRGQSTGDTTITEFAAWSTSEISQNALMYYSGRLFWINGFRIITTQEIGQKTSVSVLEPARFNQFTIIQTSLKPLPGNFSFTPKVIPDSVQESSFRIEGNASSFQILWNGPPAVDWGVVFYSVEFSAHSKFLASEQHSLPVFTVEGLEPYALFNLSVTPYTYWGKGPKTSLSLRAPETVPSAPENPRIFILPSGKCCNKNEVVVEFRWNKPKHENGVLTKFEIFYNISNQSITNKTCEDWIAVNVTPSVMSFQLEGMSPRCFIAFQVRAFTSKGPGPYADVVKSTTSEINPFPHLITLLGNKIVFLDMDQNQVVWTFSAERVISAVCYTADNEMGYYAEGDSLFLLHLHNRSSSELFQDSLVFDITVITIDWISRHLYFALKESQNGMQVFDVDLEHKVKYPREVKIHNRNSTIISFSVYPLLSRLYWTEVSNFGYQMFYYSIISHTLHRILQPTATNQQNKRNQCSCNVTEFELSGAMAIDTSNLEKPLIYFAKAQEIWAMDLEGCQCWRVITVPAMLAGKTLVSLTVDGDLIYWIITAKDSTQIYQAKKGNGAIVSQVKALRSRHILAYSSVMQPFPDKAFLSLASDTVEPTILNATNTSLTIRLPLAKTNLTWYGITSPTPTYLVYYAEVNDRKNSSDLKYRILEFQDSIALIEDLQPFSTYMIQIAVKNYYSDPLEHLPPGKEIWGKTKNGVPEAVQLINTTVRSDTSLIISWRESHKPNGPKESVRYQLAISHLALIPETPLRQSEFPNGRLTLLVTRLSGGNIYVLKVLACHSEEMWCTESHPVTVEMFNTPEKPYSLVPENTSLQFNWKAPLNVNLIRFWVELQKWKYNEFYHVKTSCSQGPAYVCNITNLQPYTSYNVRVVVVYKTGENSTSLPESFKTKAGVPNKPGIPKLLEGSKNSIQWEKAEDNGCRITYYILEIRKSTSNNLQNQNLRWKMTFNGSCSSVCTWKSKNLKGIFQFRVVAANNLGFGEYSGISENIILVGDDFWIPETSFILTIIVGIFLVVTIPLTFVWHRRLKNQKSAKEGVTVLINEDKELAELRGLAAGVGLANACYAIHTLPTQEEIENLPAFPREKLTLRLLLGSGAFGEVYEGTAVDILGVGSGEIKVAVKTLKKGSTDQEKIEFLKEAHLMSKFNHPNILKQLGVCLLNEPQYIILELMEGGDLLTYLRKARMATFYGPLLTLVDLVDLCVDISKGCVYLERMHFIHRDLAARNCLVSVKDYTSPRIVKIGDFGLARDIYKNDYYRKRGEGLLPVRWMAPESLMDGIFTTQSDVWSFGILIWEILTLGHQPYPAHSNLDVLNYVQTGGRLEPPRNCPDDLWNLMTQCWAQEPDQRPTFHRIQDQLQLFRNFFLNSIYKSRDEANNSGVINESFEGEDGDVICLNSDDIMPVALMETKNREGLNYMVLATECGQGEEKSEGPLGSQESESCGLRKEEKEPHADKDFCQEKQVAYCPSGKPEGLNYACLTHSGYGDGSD

[7] = target: Serine/threonine-protein kinase 33 (Homo sapiens) (UniProt Q9BYT3); assay: Inhibition of human recombinant STK33 at 40 nM related to control ULK1
Serine/threonine-protein kinase 33 (Homo sapiens), sequence (Q9BYT3 whole entry, looked up): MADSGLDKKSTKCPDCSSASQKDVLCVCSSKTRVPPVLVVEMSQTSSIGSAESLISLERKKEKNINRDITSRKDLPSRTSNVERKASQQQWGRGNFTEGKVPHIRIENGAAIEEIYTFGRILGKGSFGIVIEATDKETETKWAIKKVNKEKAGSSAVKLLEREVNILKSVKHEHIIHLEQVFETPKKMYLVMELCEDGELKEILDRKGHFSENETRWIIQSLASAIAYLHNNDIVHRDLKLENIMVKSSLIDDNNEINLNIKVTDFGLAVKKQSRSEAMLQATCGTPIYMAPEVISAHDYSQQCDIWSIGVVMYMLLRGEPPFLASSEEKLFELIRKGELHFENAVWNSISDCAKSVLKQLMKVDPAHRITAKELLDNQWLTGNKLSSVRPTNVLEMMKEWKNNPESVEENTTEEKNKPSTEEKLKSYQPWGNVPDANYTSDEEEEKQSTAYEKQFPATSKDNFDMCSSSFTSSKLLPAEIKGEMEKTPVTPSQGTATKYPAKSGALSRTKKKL

[8] = target: Cyclin-dependent kinase 1 (Homo sapiens) (UniProt P06493); assay: Inhibition of human recombinant CDC2 at 40 nM related to control ULK1
[9] = target: Tau-tubulin kinase 2 (Homo sapiens) (UniProt Q6IQ55); assay: Inhibition of human recombinant TTBK2 at 40 nM in presence of ATP by radiometric assay relative to control
[10] = target: Casein kinase I isoform gamma-3 (Homo sapiens) (UniProt Q9Y6M4); assay: Inhibition of human recombinant CK1g3 at 40 nM related to control ULK1
[11] = target: Insulin receptor-related protein (Homo sapiens) (UniProt P14616); assay: Inhibition of human recombinant IRR at 15 nM in presence of ATP by radiometric assay relative to control
[12] = target: cAMP-dependent protein kinase catalytic subunit alpha (Homo sapiens) (UniProt P17612); assay: Inhibition of human recombinant PKACalpha at 15 nM in presence of ATP by radiometric assay relative to control
[13] = target: T2, Serine/threonine-protein kinase 17A (Homo sapiens) (UniProt Q9UEE5); assay: Inhibition of human recombinant DRAK1 at 15 nM in presence of ATP by radiometric assay relative to control
T2 sequence (whole entry): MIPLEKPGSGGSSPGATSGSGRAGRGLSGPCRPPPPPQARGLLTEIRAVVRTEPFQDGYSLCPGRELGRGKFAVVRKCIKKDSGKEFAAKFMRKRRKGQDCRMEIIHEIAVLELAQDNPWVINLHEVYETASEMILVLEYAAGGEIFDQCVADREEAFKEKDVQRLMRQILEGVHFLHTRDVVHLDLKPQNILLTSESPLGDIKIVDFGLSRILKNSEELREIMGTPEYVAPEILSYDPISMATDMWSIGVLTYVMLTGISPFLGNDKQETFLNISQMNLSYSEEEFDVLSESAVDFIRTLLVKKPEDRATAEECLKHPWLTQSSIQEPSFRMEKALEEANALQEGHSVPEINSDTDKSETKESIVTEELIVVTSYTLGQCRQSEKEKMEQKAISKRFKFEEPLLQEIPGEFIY

inhibition [1]: 0%
inhibition [2]: 57%
inhibition [3]: 6%
fold change (FC) [4]: 0.12
Structure (SMILES): CNC(=O)c1ccccc1Oc1nc(Nc2cc(OC)c(OC)c(OC)c2)ncc1Br

inhibition [5]: 0%
inhibition [6]: 0%
fold change (FC) [7]: 0.26
fold change (FC) [8]: 0.62
inhibition [9]: 0%
fold change (FC) [10]: 0.05
Structure (SMILES): O=C(N[C@@H](C1CC1)C(F)(F)F)c1cc(-c2cnn3cc(-c4ccc(F)cc4)cnc23)cs1

inhibition [11]: 2%
inhibition [12]: 0%
inhibition [13]: 71%
Structure (SMILES): CC(C)[C@H](NC(=O)c1cc(-c2cnn3cc(-c4ccc(OCCN5CCCCC5)cc4)cnc23)cs1)C(F)(F)F
